Consider 31 compounds from Sander's compilation of Henry's law constants (doi:10.1021/ac00058a023).

A short description of the data set: Henry solubility constant Hcp at 298.15 K (mol/(m3 Pa)). The following applies: reference: Li and Carr (1993).

Turning to `ClC(Cl)C(Cl)Cl` [1,1,2,2-tetrachloroethane], the “Henry solubility constant Hcp” value is 0.029.

Turning to `Cc1ccccc1C` [1,2-dimethylbenzene], the “Henry solubility constant Hcp” value is 0.0019.

Turning to `Cc1cc(C)cc(C)c1` [1,3,5-trimethylbenzene], the “Henry solubility constant Hcp” value was 0.0013.

`Cc1cccc(C)c1` [1,3-dimethylbenzene]: the “Henry solubility constant Hcp” value was 0.0013.

Consider `Cc1ccc(C)cc1` [1,4-dimethylbenzene], for which the “Henry solubility constant Hcp” value stood at 0.0013.

In the case of `CCCCCCO` [1-hexanol], the “Henry solubility constant Hcp” value turned out to be 0.64.

Consider `CCCCCO` [1-pentanol], for which the “Henry solubility constant Hcp” value was 0.84.

As to `CCCO` [1-propanol], the “Henry solubility constant Hcp” value worked out at 1.4.

With `CC(C)C#N` [2-methylpropanenitrile], the “Henry solubility constant Hcp” value was 0.094.

For `CCCCCCCC(C)=O` [2-nonanone], the “Henry solubility constant Hcp” value was 0.041.

For `Cc1cccc([N+](=O)[O-])c1` [3-nitrotoluene], the “Henry solubility constant Hcp” value was 0.28.

Consider `CC(C)c1ccccc1` [(2-propyl)-benzene], for which the “Henry solubility constant Hcp” value stood at 0.00091.

As to `ClCc1ccccc1` [(chloromethyl)-benzene], the “Henry solubility constant Hcp” value turned out to be 0.012.

On to `c1ccccc1` [benzene], for which the “Henry solubility constant Hcp” value was 0.0017.

With `Brc1ccccc1` [bromobenzene], the “Henry solubility constant Hcp” value was 0.0044.

`CCCCc1ccccc1` [butylbenzene]: the “Henry solubility constant Hcp” value was determined as 0.00071.

For `Clc1ccccc1` [chlorobenzene], the “Henry solubility constant Hcp” value came to 0.0025.

Regarding `CC(C)OC(C)C` [diisopropyl ether], the “Henry solubility constant Hcp” value turned out to be 0.0042.

For the compound `CCCOCCC` [dipropyl ether], the “Henry solubility constant Hcp” value was found to be 0.003.

With `CC#N` [ethanenitrile], the “Henry solubility constant Hcp” value stood at 0.46.

As for `CCO` [ethanol], the “Henry solubility constant Hcp” value worked out at 1.9.

Regarding `CCOc1ccccc1` [ethoxybenzene], the “Henry solubility constant Hcp” value was determined as 0.017.

As to `CCc1ccccc1` [ethylbenzene], the “Henry solubility constant Hcp” value is 0.0013.

As for `Fc1ccccc1` [fluorobenzene], the “Henry solubility constant Hcp” value came out at 0.0011.

In the case of `Ic1ccccc1` [iodobenzene], the “Henry solubility constant Hcp” value amounted to 0.0076.

As for `COc1ccccc1` [methoxybenzene], the “Henry solubility constant Hcp” value stood at 0.032.

As to `Cc1ccccc1` [methylbenzene], the “Henry solubility constant Hcp” value amounted to 0.0016.

Turning to `CCCCCCCC=O` [octanal], the “Henry solubility constant Hcp” value came to 0.021.

Regarding `CCCCC#N` [pentanenitrile], the “Henry solubility constant Hcp” value is 0.14.

Take `CCCc1ccccc1` [propylbenzene]: the “Henry solubility constant Hcp” value stood at 0.00093.

In the case of `ClC(Cl)(Cl)Cl` [tetrachloromethane], the “Henry solubility constant Hcp” value is 0.00023.
